Reference: patent publication US20040167203A1, “Absorption enhancing agents” (priority 2003, published 2004)
Read-outs that look alike come from different tables or passages of the source. Each block holds one molecule with its values, some of them ahead of it.

Experiments:
Caco-2 cell line [1] = type: in vitro ADME, human
Source text: (§1) The Caco-2 cell line is a well-recognized in vitro screening model, which both structurally and functionally represents the small intestinal epithelium. Caco-2 cells are derived from human colon carcinoma cells and differentiate in culture to form intestinal epithelia similar to that found in the small intestine. More specifically, Caco-2 cells form a brush border with normal enzymes, form tight junctions between cells, and acquire the barrier properties of an enterocyte sheet. […] The absorption enhancers were tested using two model drugs, sampatrilat and hydrochlorothiazide. In addition, a lactate dehydrogenase (LDH) assay was conducted after the permeation studies to evaluate the cytotoxicity of the absorption enhancers as well as to discover any violation of the integrity of the Caco-2 cells. LDH is a cytosolic enzyme that is not normally secreted outside the cell. However, it leaks into the culture medium upon damage to the cell membranes. In vitro release of LDH from cells provides an accurate measure of cell membrane integrity and cell viability. […] Wu, S.-J., et al, Pharmaceutical Res., 16(8): 1266-1272 (1999); Allen, M. J. et al., Promega Notes Magazine, Number 45, p. 7 (1994); or Ehrlich, M. et al, Current Protocols in Toxicology, John Wiley & Sons, New York (2000). LDH leakage into the apical compartment of the Caco-2 cell system was used to measure the effect, if any, of a given absorption enhancer on the viability of the Caco-2 cells.
Permeability coefficients are determined as previously reported by Yazdania et.el (Yazdanian M, Glynn, S I, Wright J L, et al. 1998. Correlating partitioning and Caco-2 permeability of structurally diverse small molecular weight compounds. Pharm Res 15:1490-1494). Briefly, drug solutions were prepared in HBSS at a known final concentration. For AP to BL experiments, the solution was placed on the apical side of the cells and samples were taken from basolateral side. In contrast, for BL to AP experiments, the solution was placed on the basolateral side of the cells and samples were taken from apical side. The samples are analyzed by an HPLC. Transport rates (J) are determined by plotting cumulative amounts of drug permeated as a function of time. Apparent permeability coefficients Pcaco-2, are determined according to the equation Pcaco-2=J/ACi where Ci is the initial concentration of the solution in donor chamber and A is the surface area of the filter.

Caco-2 cell line [2] = experiment: in vitro; type: in vitro ADME; details: human, Caco-2, 1 % w/v
Source text: as §1
(§2) Permeability coefficients are determined as previously reported by Yazdania et.el (Yazdanian M, Glynn, S I, Wright J L, et al. 1998. Correlating partitioning and Caco-2 permeability of structurally diverse small molecular weight compounds. Pharm Res 15:1490-1494). […] The samples are analyzed by an HPLC. Transport rates (J) are determined by plotting cumulative amounts of drug permeated as a function of time. Apparent permeability coefficients Pcaco-2, are determined according to the equation Pcaco-2=J/ACi where Ci is the initial concentration of the solution in donor chamber and A is the surface area of the filter. […]

Caco-2 cells = experiment: Lactate dehydrogenase (LDH) leakage assay after permeation studies; type: cell-based, human; details: relative to cells treated with Hank's balanced salt solution alone
Source text: as §1

in vitro = in vitro ADME; details: human, Caco-2
Source text: as §1, §2

Caco-2 cell line [3] = type: in vitro ADME; details: human, Caco-2, 1.8 mg/mL
Description: The original cell line integrity and the effect of excipients on the integrity of cell line were also tested by measuring the flux of ^14C-mannitol.

- Potency in permeability enhancement (in words) (Caco-2 cell line [1]): low or no potency
Molecule: O=C1CCCCCCCCCCCCCCO1 [Cyclopentadecanolide, cyclopentadecanolide]

- Potency in permeability enhancement (in words) (Caco-2 cell line [1]; human): low or no potency
Molecule: CC1(C)[C@@H](O)CC[C@]2(C)[C@H]3C(=O)C=C4[C@@H]5C[C@@](C)(C(=O)O)CC[C@]5(C)CC[C@@]4(C)[C@]3(C)CC[C@@H]12 [Glycyrrehetinic acid, 18 β-glycyrrhetinic acid]

- Effect on sampatrilat permeation across the Caco-2 cell line (in words) (Caco-2 cell line [2]): significantly increase
Molecule: CN(C)CC(=O)O [N,N-dimethylglycine]
- Cytotoxicity (LDH assay) (Caco-2 cells): not cytotoxic

- Potency in permeability enhancement (in words) (Caco-2 cell line [1]; human): low or no potency
Molecule: O=C(/C=C/C=C/c1ccc2c(c1)OCO2)N1CCCCC1 [Piperine, piperine]

- Papp A→B at 1.8 mg/mL (in vitro): 0.16 ×10⁻⁶ cm/s
- Permeability Coefficient, Mannitol (Caco-2 cell line [3]): 4.9 10E−7 cm/s
Molecule: CS(=O)(=O)N[C@@H](CCCCN)C(=O)NC[C@H](CC1(C(=O)N[C@@H](Cc2ccc(O)cc2)C(=O)O)CCCC1)C(=O)O [Sampatrilat]

- Effect on sampatrilat permeation across the Caco-2 cell line (in words) (Caco-2 cell line [2]): significantly increase
Molecule: O=C(O)CCCCCCCCC(=O)O [Sebacic acid, sebacic acid]
- Cytotoxicity (LDH assay) (Caco-2 cells): not cytotoxic

Molecule: O=C(O)C1=C[C@@H](O)[C@@H](O)[C@H](O)C1 [Shikimic acid, shikimic acid]
- Cytotoxicity (LDH assay) (Caco-2 cells): not cytotoxic

- Potency in permeability enhancement (in words) (Caco-2 cell line [1]): low or no potency
Molecule: Vitamin E TPGS [Vitamin E TGPS]
